Experiment [1] deals with wild-type Yarrowia lipolytica strain (PO1f, ATCC MYA-2613). As to the kind of experiment: Growth inhibition and glucose consumption of the parent strain according to furfural concentration (Reference Example 1). Type of experiment: cell-based. The text has this:
Confirmation of the degree of growth inhibition according to furfural in a parent strain Prior to the production of furfural-resistant strains, Yarrowia lipolytica PO1f strain having accession number ATCC MYA-2613, which are wild-type Yarrowia lipolytica, was selected as a parent strain, and the degree of growth inhibition and the degree of glucose consumption according to the concentration of furfural in the wild-type Yarrowia lipolytica strain, and the concentrations of furfural and furoic acid in the culture medium according to the cell culture time were confirmed.
Specifically, as the culture medium, a minimal medium (YSC medium (Yeast Synthetic Complete medium)) containing 6.7 g/L yeast nitrogen base (YNB), 20 g/L glucose as a carbon source and supplemented with complete supplement mixture (CSM) or CSM-Leu or CSM-Leu-Ura (MP Biomedicals, Solon, OH, USA) used. Furfural was added to the medium at concentrations of 0.1 g/L, 0.2 g/L, 0.3 g/L, 0.4 g/L or 0.5 g/L, respectively, and the growth rate was compared with that when furfural was not added. The culture was inoculated with the wild-type Yarrowia lipolytica strain with an initial OD600 value of 0.2 in 20 mL of the culture medium in a 100 mL Erlenmeyer flask, and then proceeded with shaking culture at 28° C. at 200 rpm. In this case, the wild-type strain is Yarrowia lipolytica PO1f strain with accession number ATCC MYA-2613. The “OD600” refers to the absorbance or optical density at a wavelength of 600 nm. It is possible to measure the density or concentration of microorganisms or cells in a sample by using the measured OD600.

Experiment [2] concerns Yarrowia lipolytica strain. Conditions: very low concentration (~0.5 g/L) of furfural; cited from earlier work.
Where [3] appears, read: furfural 0.1-0.5 g/L in YSC medium, 20 g/L glucose, 28° C., 200 rpm.

With `O=Cc1ccco1` [furfural], in experiment [1] (0.2 g/L or more of furfural), the “initial growth of the wild-type strain” value is “growth was delayed”. Also, in experiment [1] (0.5 g/L of furfural), the “growth of the wild-type strain” value is recorded as “no growth was observed”. Also, in experiment [1] (setting [3]), the “growth of the wild-type Yarrowia lipolytica strain as the furfural concentration increased” value is listed as “clearly inhibited” and the “rate of glucose consumption as the furfural concentration increased” value is “reduced”. The “cell growth of Yarrowia lipolytica strain” value in experiment [2] is given as “significantly inhibited”.

These data come from US20240352401A1, “FURFURAL-RESISTANT STRAIN AND METHOD FOR IMPROVING FURFURAL-RESISTANT OF STRAIN” (Korea Institute of Science and Technology, priority 2023, published 2024).
